Test results from EP0519427A2, “N-substituted-3-iodopropiolamide, production and use thereof” (priority 1991, dated 1992).

Key:
Assay type in all cases: cell-based
[1] = system: Aspergillus Niger (IFO 6341), Penicillium funiculosum (IFO 6345), Rhizopus javanicus (IFO 6354), Aureobasidium pullulans (IFO 6353), Gliocladium virens (IFO …); assay: Fungicide activity for wood fungicide, sum of average ratings and damage value over the five fungi
Description: (§1) This test was conducted according to Specification No.2 of Japan Wood Preserving Association, enacted in 1979 and titled "Test methods of fungicide activity for wood fungicide".
(§2) • ① Aspergillus niger van Tieghem IFO 6341 = ATCC 6275 • ② Penicillium funiculosum Thom (formerly : Penicillium luteum Zukal) IFO 6345 = ATCC 9644 • ③ Rhizopus javanicus Takeda (formerly : Rhizopus nigricans Ehrenberg S.N. 32) IFO 6354 • ④ Aureobasidium pullulans (de Bary) Arnaud IFO 6353 = IAM (H. Iizuka, F-24) • ⑤ Gliocladium virens Miller, Gidden & Fosteb IFO 6355 = ATCC 9645 (formerly : Trichoderma viride, T.I.)
(§3) The fungi ① , ② , ③ and ⑤ are classified as fungi imperfecti, and the fungus ④ as blue stain fungus.
(§4) The Culture medium comprised the potato-sap agar culture medium (specified in the Japan Industrial Standard (JIS) Z 2911- 1960) of 50 ml, put in the conical flask of 100 ml, sterilized by steam at 1.4-1.6 kgf/cm² .G (137.2-156.8 KPa) for 30 minutes.
(§5) The fungi to be used were inoculated into the culture medium specified in the previous section and were cultured at 26 ± 2 °C under the relative humidity of 70-80 % for two weeks.
(§6) The potato sap of 50 ml, sterilized, cooled to room temperature and to which dioctyl sodium sulfosuccinate, a wetting agent, was added so as to become 0.005 %, was dropped to the fully breeding fungi layer, and was agitated with a platinum spatula in such a way that the spore was torn off. The resulting liquid filtered by sterilized gauze was the spore suspension.
(§7) 3-5-1 A Petri dish measured 90-100 mm in diameter and 20 mm in height.
(§8) 3-5-2 Agar liquid (which has no nutrients) of 2 % sterilized by steam was dropped onto the Petri dish sterilized by dry heat, and then was solidified.
(§9) 3-5-3 Three mm diameter sterilized glass bars or plastic nets made of polypropylene, etc. were placed to prevent the test specimens from touching with agar directly.
(§10) 3-6-1 The type of trees for wood specimens was beech. The cross section was of grain face, and the dimension was 20 mm wide 3 mm thick and 50 mm long.
(§11) 3-6-2 Wood specimens were supplied with nutrients in such a way that they were dipped into the potato-sap (the one in the section 3-2, but agar was not added) for 3 minutes.
(§12) 3-6-3 Nutrient-supplied wood specimens, after drying at 60 °C, were used for testing immediately. They were temporarily stored at 0 °C, but they were served to tests as soon as possible.
(§13) The test specimens were of two types, treated and untreated speciments. The treated specimens referred to the one treated with fungicide. The untreated specimens were of two types, the one really untreated and the other treated with solvent only.
(§14) 3-7-2-1 Nutrients-supplied wood specimens were dried at 60 ± 2 °C, and then their weights (W₀) were measured. Test specimens of 10-20 pieces were piled up in a one liter beaker in such a way that two specimens constant space apart from each other were alternately put on the other two specimens also constant space apart from each other. On the top of the two specimens, a weight was placed. Through the test specimens thus arranged, the fungicide solution was introduced. The level of the fungicide solution was one centimeter above the top specimens. The test specimens were dipped for three minutes after the fungicide solution introduction.
(§15) After finishing dipping, the test specimens were wiped softly, and then the weights (W₁) were measured immediately. As control experiment, the same procedure as the above was done using solvent without fungicide.
(§16) 3-7-2-2 The amounts of solution pick-up and fungicide pick-up were calculated with the following equations: The amount of solution absorption: RL = W₁ - W₀ [formula] The amount of fungicide absorption: Rc = RL × fungicide concentration [formula] 3-7-2-3 Wood specimens treated were placed without contacting each other, then were air-dried for two days, and then served as the treated test specimens. […]

[2] = system: Gliocladium virens Miller, Gidden & Fosteb IFO 6355; assay: Fungicide activity for wood fungicide (rating of fungi growth on treated wood); settings: beech specimens dipped 3 min in fungicide solution, 4 weeks culture; rating 0 (no growth) to 3; mean of 6 specimens
Description: as §1, §2, §3, §4, §5, §6, §7, §8, §9, §10, §11, §12, §13, §14, §15, §16

[3] = system: Aspergillus niger van Tieghem IFO 6341; assay: as above; settings: beech specimens dipped 3 min in fungicide solution, 4 weeks culture; rating 0 (no growth) to 3; mean of 6 specimens
Description: as §1, §2, §3, §4, §5, §6, §7, §8, §9, §10, §11, §12, §13, §14, §15, §16

[4] = system: Rhizopus javanicus Takeda IFO 6354; assay: as above; settings: beech specimens dipped 3 min in fungicide solution, 4 weeks culture; rating 0 (no growth) to 3; mean of 6 specimens
Description: as §1, §2, §3, §4, §5, §6, §7, §8, §9, §10, §11, §12, §13, §14, §15, §16

[5] = system: Penicillium funiculosum Thom IFO 6345; assay: as above; settings: beech specimens dipped 3 min in fungicide solution, 4 weeks culture; rating 0 (no growth) to 3; mean of 6 specimens
Description: as §1, §2, §3, §4, §5, §6, §7, §8, §9, §10, §11, §12, §13, §14, §15, §16

[6] = system: Aureobasidium pullulans (de Bary) Arnaud IFO 6353; assay: as above; settings: beech specimens dipped 3 min in fungicide solution, 4 weeks culture; rating 0 (no growth) to 3; mean of 6 specimens
Description: as §1, §2, §3, §4, §5, §6, §7, §8, §9, §10, §11, §12, §13, §14, §15, §16

[7] = system: Coriolus versicolor(L. ex Fr.) Quélet, FFPRI 1030; assay: Preserving activity for wood preservatives (weight loss of treated wood); settings: beech sapwood specimens, 110 ± 10 g/m² preservative applied (0.5% xylene solution per table note), eight weeks at 26 ± 2 °C; lower = higher preserving activity
Description: (§17) This test was conducted according to Specification No.1 of Japan Wood Preserving Association, enacted in 1979, amended in 1989 and titled "Test methods of preserving activity for wood preservatives used in the coating, spraying and dipping treatment".
(§18) • ① Tyromyces palustris (Ber. et Curt.) Murr., FFPRI 0507 --"Ouzuratake" • ② Coriolus versicolor(L. ex Fr.) Quélet, FFPRI 1030 --"Kawaratake"
(§19) These two fungi are classified as wood rot fungi.
(§20) Culture media comprised culture jars (cylindrical jars of bottom diameter 8-9 cm, opening diameter 6-7 cm and height 15-18 cm), in which quartz sand of 250 g (the size of which corresponds to 20-30 mesh) was put first, and then the solution of 70 ml containing 2.0 % malt extracts and 1.0 % peptone was introduced, over which chips of the beech or other broadleaf tree were spread at about 2 mm thickness, and then sterilized at 120 °C for 30 minutes in the wet heated sterilizer.
(§21) Fungi were cultured at 26 ± 2 °C with shaking using the culture solution of 2.0 % malt extracts and 1.0 % peptone. After sufficient breeding was obtained, the fungi solution of about 3 ml was spread all over the culture medium, and then the fungi were cultured at 26 ± 2 °C with the relative humidity of over 70 %. After 10-15 days when the fungi layer sufficiently covered the culture medium, the fungi were served for the tests.
(§22) Wood specimens were the sapwood of intact cedar and beech, the dimension of which was 5 mm thick, 20 mm wide and 40 mm long. The grain face was of 20 mm width and 40 mm length. The side faces were treated with cold-setting epoxy resin.
(§23) The antimicrobial operation was performed with specifying types of fungi for corresponding type of trees. The combinations were as follows: Cedar----Tyromyces palustris ("Ouzuratake") Beech----Coriolus versicolor ("Kawaratake")
(§24) The test specimens were of two types, treated and untreated specimens, respectively.
(§25) The treated specimens referred to the wood specimens coated by brushing, spraying or dipping with wood preservatives. The amount of applied preservatives was 110 ± 10 g/m².
(§26) The amount of applied preservatives for each test specimen was calculated by the following equation:
(§27) The amount of applied preservatives (g/m²)=(W₁-W₂)/A wherein W₁ : weight of the test specimen after absorption(g), W₂ : weight of the test specimen before absorption(g) and A: surface area of test specimen except both butt surfaces (m²)
(§28) 2-7-1 The test specimens prepared in the previous section were dried at 60 ± 2 °C with a recirculating dryer for 48 hours, and were allowed to stand in a desiccator for about 30 minutes, and then the weight (W₃) was measured to an accuracy of 0.01 g.
(§29) 2-7-2 Three of each treated and untreated specimens were assembled in the Teflon casing. After sterilizing, the two assemblies were put on their 40 × 5 mm face on the fungi layer in the separate jar. They were kept at 26 ± 2 °C under the relative humidity of over 70 % for eight weeks.
(§30) 2-7-3 After the eight weeks had elapsed, the test specimens were taken out, and mycelia and other attachments of them were removed neatly. After air-drying for 24 hours, the test specimens were dried at 60 ± 2 °C in a recirculating dryer for 48 hours, and were allowed to stand in a desiccator for about 30 minutes, and then the weight (W₄) was measured to an accuracy of 0.01 g.
(§31) The test results were presented by the ratio of average weight loss of test specimens due to antimicrobial operation. The standard deviation and coefficient of variation were also determined. The ratio of weight loss for each test specimen was calculated by the following equation, and its average was also determined: The ratio of weight loss(%) = (W₃ - W₄) / W₃ × 100 [formula] . Lower value of the ratio of weight loss corresponds to higher wood preserving activity. […]

[8] = system: Tyromyces palustris (Ber. et Curt.) Murr., FFPRI 0507; assay: as above; settings: cedar sapwood specimens, 110 ± 10 g/m² preservative applied (0.5% xylene solution per table note), eight weeks at 26 ± 2 °C; lower = higher preserving activity
Description: as §17, §18, §19, §20, §21, §22, §23, §24, §25, §26, §27, §28, §29, §30, §31

Structure (SMILES): CCCCNC(=O)OCC#CI [R, I-C≡CCH₂O-CO-NH(CH₂)₃CH₃, reference compound]
- damage value ([1]; D = S₁ / S₀ × 100, untreated 100.0, lower = higher fungicide activity): 13.3
- Sum (of average rating values A₁ to A₅) ([1]; S = A₁ + A₂ + A₃ + A₄ + A₅, untreated 15.0): 2.0
- Average rating value, A₅ : Gliocladium virens (IFO 6355) [2]: 0.0
- Average rating value, A₁ : Aspergillus Niger (IFO 6341) [3]: 0.0
- Average rating value, A₃ : Rhizopus javanicus (IFO 6354) [4]: 2.0
- Average rating value, A₂ : Penicillium funiculosum (IFO 6345) [5]: 0.0
- Average rating value, A₄ : Aureobasidium pullulans (IFO 6353) [6]: 0.0
- Ratio of weight loss (%), C. versicolor [7]: 6.4%
- Ratio of weight loss (%), T. palustris [8]: 1.3%
